Measured values taken from article PMC8389915, “Synthesis and Preclinical Validation of Novel Indole Derivatives as a GPR17 Agonist for Glioblastoma Treatment” (Journal of Medicinal Chemistry, 2021).

Molecular target: G protein-coupled receptor 17 (GPR17) (Homo sapiens, UniProt Q13304)
Sequence (Q13304 whole entry): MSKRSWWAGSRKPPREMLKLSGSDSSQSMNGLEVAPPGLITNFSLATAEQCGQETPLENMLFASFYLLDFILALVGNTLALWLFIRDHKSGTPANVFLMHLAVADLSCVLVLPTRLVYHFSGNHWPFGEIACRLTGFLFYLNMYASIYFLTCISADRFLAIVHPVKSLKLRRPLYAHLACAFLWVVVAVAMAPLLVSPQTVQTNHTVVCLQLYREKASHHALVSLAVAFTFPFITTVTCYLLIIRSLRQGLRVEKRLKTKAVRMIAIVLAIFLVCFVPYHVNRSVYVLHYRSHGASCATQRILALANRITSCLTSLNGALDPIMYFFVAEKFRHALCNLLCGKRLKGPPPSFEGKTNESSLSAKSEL

SMILES: O=C(Nc1ccccc1)Oc1cc(OC(=O)Nc2ccccc2)c2c(c1)N(C(c1ccc(F)cc1)c1cccc(Cl)c1O)CC2 (stereo not shown) [CHBC, 1-((3-chloro-2-hydroxyphenyl)(4-fluorophenyl)methyl)indoline-4,6-diyl bis(phenylcarbamate)]
- EC50: 19.2 µM
